Measurements: patent publication CN109475563A, “蛋白酶抑制剂的长效医药组合物” (Taimed Biologics Inc, priority 2016, dated 2017)

Tests used:
[1] = Rat subcutaneous PK, microparticle vs nanosuspension of TMB-607; assay type: in vivo; settings: SC
[2] = Dog PK, intramuscular vs subcutaneous nanosuspension of TMB-607; assay type: in vivo, beagle dog; settings: Fig. 3
[3] = Monkey PK, nanosuspensions of different particle size; assay type: in vivo
[4] = PK of injectable nanosized TMB-607 (summary statement); assay type: in vivo; settings: injectable formulation of nanosized TMB-607; species not stated
[5] = molecular target: HIV-1 protease (HIV-1蛋白酶) (Human immunodeficiency virus type 1 group M subtype B, UniProt P04585); settings: cited from earlier work
[6] = tested on: laboratory-adapted virus (实验室适应病毒); settings: 48-week in vitro selection, increasing TMB-607 concentration; cited from earlier work
[7] = tested on: single mutations in the protease open reading frame (蛋白酶开放读框); settings: in vitro, site-directed mutagenesis; cited from earlier work
[8] = male beagle dog, 60 mg/kg, particle size about 150 nm, 6 weeks

## COC(=O)N[C@H](C(=O)NCCCC[C@@H](CO)N(CC(C)C)S(=O)(=O)c1ccc(N)cc1)C(c1ccccc1)c1ccccc1 [TMB-607]
[1]; nano-sized TMB-607, printed as 247 nm, Fig. 2
  duration of plasma level above protein-binding-adjusted EC50: 14 days
[1]; nanosuspension printed as 247 nm, compared with microparticle 2470 nm, Fig. 2
  duration for which TMB-607 plasma level is maintained: > 14 days
[1]; microparticle 2470 nm, Fig. 2 (general description)
  plasma level above protein-binding-adjusted EC50 for 14 days (in words): 不能
[1]; rat, microparticle 2470 nm, 16.7 mg/kg
  Cmax in the initial period (in words): 引人注目的高Cmax
[1]; rat, microparticle 2470 nm, 16.7 mg/kg, Fig. 2
  plasma level above protein-binding-adjusted EC50 for 14 days (in words): 不能
[1]; rat, nanosuspension 240 nm, 23.5 mg/kg
  release profile (in words): 持续的释放曲线
[1]; rat, nanosuspension 240 nm, doses printed for microparticle and nanosuspension 16.7 and 23.5 mg/kg respectively, Fig. 2
  duration of plasma level above protein-binding-adjusted EC50: 14 days
[2]; [8]
  AUC0-t, SC versus IM (in words): 没有在AUC0-t值中观察到明显的差异
  Cmax, IM versus SC (in words): 肌肉给药路径的Cmax值高于皮下给药路径的Cmax值
[2]; single IM or SC injection of nanosuspension
  plasma level after single IM or SC injection (in words): 延长了TMB-607的血浆水平
[3]; 113 nm compared with 214 nm
  plasma level and duration of action, smaller particle size (in words): 较高的血浆水平和较长的作用时间
[3]; monkey, 60 mg/kg, 113 nm versus 214 nm, Fig. 4
  plasma level and duration of action, smaller particles (in words): 较高的血浆水平和较长的作用时间
[3]; monkey, injected nanosuspension, 60 mg/kg, 214 nm versus 113 nm, 4 weeks
  AUC0-t on reducing particle size (in words): AUC0-t和t1/2均大致增加
[3]; particle sizes 214 nm and 113 nm
  plasma level (in words): 都可以延长血浆水平
[4]
  duration of stable plasma levels: > 1 month
[5]
  inhibition of HIV-1 protease (potency, in words): 效用 and 有效
  selectivity in inhibiting HIV-1 protease (in words): 选择性 and 有选择性
[6]
  mutations selected in protease open reading frame: 四个突变
[7]
  resistance caused by single mutation (in words): 单一突变不会导致对TMB-607的明显抗药性
